Patent publication US8765773B2, “Substituted hydroxamic acids and uses thereof” (Millennium Pharmaceuticals, Inc., priority 2010, dated 2014)

target: T1, purified human HDAC6 (Homo sapiens, UniProt Q9UBN7); assay: HDAC6 Enzyme Assay; format: biochemical; conditions: compound concentration 0.37 μM, read-out: Percent Inhibition
T1 construct: purchased BPS Bioscience 5006
T1 sequence (Q9UBN7 1-1215): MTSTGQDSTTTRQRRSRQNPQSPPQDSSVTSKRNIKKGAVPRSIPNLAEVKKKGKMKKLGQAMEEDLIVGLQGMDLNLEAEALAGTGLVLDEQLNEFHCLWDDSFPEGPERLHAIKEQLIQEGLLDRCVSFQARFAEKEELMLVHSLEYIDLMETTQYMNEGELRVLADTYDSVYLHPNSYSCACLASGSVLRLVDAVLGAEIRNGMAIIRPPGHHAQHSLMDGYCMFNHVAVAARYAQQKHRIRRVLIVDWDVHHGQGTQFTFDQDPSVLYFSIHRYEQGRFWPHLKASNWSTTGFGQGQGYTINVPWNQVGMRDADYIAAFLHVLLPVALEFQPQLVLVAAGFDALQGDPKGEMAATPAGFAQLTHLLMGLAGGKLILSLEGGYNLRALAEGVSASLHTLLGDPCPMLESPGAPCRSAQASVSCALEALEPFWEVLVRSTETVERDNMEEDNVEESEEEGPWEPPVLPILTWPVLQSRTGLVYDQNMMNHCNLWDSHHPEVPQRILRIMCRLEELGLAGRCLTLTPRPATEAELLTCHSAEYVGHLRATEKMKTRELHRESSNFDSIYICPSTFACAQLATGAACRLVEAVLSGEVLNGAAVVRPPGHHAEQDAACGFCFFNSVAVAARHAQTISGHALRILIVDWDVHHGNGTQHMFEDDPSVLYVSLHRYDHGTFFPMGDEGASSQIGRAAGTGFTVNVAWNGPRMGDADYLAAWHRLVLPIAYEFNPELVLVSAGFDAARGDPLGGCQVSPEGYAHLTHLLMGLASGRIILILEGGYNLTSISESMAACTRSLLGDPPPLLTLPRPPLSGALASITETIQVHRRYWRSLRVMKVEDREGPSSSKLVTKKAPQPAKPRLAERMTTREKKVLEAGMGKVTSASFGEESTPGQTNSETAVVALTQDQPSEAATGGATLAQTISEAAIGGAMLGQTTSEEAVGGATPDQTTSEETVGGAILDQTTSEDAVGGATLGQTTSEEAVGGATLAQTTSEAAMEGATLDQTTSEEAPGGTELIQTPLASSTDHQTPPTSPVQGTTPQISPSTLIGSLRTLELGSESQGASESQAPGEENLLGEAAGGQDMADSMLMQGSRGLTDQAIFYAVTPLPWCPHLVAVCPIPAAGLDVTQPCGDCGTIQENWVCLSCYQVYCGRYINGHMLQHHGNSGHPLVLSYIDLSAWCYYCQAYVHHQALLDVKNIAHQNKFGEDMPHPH
Method in brief: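 Purified human HDAC6 incubated 1 h at 30° C with Ac-Arg-Gly-Lys(Ac)-AMC peptide plus compound or DMSO; stopped with trichostatin A. Deacetylated product trypsin-digested, released AMC read by fluorescence (Ex 340/Em 460 nm). Percent inhibition at one concentration or IC50 from curves relative to DMSO controls.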

Q: How did the inhibition at 0.37 µM turn out when `CCn1nccc1-c1nc2cc(C(=O)NO)ccc2c(=O)n1Cc1ccc(C(F)(F)F)cc1` [Compound I-13, 2-(1-ethyl-1H-pyrazol-5-yl)-N-hydroxy-4-oxo-3-[4-(trifluoromethyl)benzyl]-3,4-dihydroquinazoline-7-carboxamide] was run?
A: The inhibition at 0.37 µM was 82.1%.

Q: For `O=C(NO)c1ccc2ncn(Cc3cccc(-c4ccccc4Cl)c3)c(=O)c2c1` [Compound I-28, 3-[(2′-chlorobiphenyl-3-yl)methyl]-N-hydroxy-4-oxo-3,4-dihydroquinazoline-6-carboxamide], which inhibition at 0.37 µM is on record?
A: The inhibition at 0.37 µM was 85.5%.

Q: With `O=C(NO)c1ccc2ncn(Cc3cccc(-c4c(Cl)cccc4Cl)c3)c(=O)c2c1` [Compound I-23, 3-[(2′,6′-dichlorobiphenyl-3-yl)methyl]-N-hydroxy-4-oxo-3,4-dihydroquinazoline-6-carboxamide] as the compound, how does the inhibition at 0.37 µM read?
A: The inhibition at 0.37 µM was 92.2%.

Q: Which inhibition at 0.37 µM does the source give for `O=C(NO)c1ccc2ncn(CCc3cccc(-c4cc5ccccc5s4)c3)c(=O)c2c1` [Compound I-302, 3-{2-[3-(1-benzothien-2-yl)phenyl]ethyl}-N-hydroxy-4-oxo-3,4-dihydroquinazoline-6-carboxamide] here?
A: The inhibition at 0.37 µM was 83.5%.

Q: For `CS(=O)(=O)Nc1cccc(Cn2cnc3ccc(C(=O)NO)cc3c2=O)c1` [Compound I-200, N-hydroxy-3-{3-[(methylsulfonyl)amino]benzyl}-4-oxo-3,4-dihydroquinazoline-6-carboxamide], which inhibition at 0.37 µM is on record?
A: Its inhibition at 0.37 µM is 93.3%.

Q: Which inhibition at 0.37 µM does the source give for `CS(=O)(=O)c1cccc(Cn2cnc3ccc(C(=O)NO)cc3c2=O)c1` [Compound I-135, N-hydroxy-3-[3-(methylsulfonyl)benzyl]-4-oxo-3,4-dihydroquinazoline-6-carboxamide] here?
A: Its inhibition at 0.37 µM is 95.3%.

Q: How did the inhibition at 0.37 µM turn out when `Cc1cn(Cc2ccccc2)c(=O)c2cc(C(=O)NO)ccc12` [Compound I-400, 2-benzyl-N-hydroxy-4-methyl-1-oxo-1,2-dihydroisoquinoline-7-carboxamide] was run?
A: Its inhibition at 0.37 µM is 73.9%.

Q: With `O=C(NO)c1ccc2ncn(Cc3cccc(-c4ccc(F)cc4)c3)c(=O)c2c1` [Compound I-181, 3-[(4′-fluorobiphenyl-3-yl)methyl]-N-hydroxy-4-oxo-3,4-dihydroquinazoline-6-carboxamide] as the compound, how does the inhibition at 0.37 µM read?
A: Its inhibition at 0.37 µM is 92.7%.

same assay, conditions: compound concentration 0.412 μM, read-out: Percent Inhibition

Q: With `CC(C)(C)OC(=O)N1CCC(NC(=O)c2nc3cc(C(=O)NO)ccc3c(=O)[nH]2)CC1` [Compound I-241, tert-butyl 4-[({7-[(hydroxyamino)carbonyl]-4-oxo-3,4-dihydroquinazolin-2-yl}carbonyl)amino]piperidine-1-carboxylate] as the compound, how does the inhibition at 0.412 µM read?
A: Its inhibition at 0.412 µM is 29.8%.

Q: `O=C(NO)c1ccc2ccn(Cc3ccccn3)c(=O)c2c1` [Compound I-279, N-hydroxy-1-oxo-2-(pyridin-2-ylmethyl)-1,2-dihydroisoquinoline-7-carboxamide] was tested. Which inhibition at 0.412 µM did it give?
A: Its inhibition at 0.412 µM is 87.9%.

Q: For `O=C(NO)c1ccc2c(=O)[nH]cnc2c1` [Compound I-284, N-hydroxy-4-oxo-3,4-dihydroquinazoline-7-carboxamide], which inhibition at 0.412 µM is on record?
A: Its inhibition at 0.412 µM is 76.8%.

Q: Which inhibition at 0.412 µM does the source give for `O=C(NO)c1ccc2c(=O)n(Cc3cccc(Cl)c3)cnc2c1` [Compound I-43, 3-(3-chlorobenzyl)-N-hydroxy-4-oxo-3,4-dihydroquinazoline-7-carboxamide] here?
A: Its inhibition at 0.412 µM is 96.1%.

Q: Which inhibition at 0.412 µM does the source give for `COc1cc(Cn2ccc3ccc(C(=O)NO)cc3c2=O)cc(OC)c1` [Compound I-202, 2-(3,5-dimethoxybenzyl)-N-hydroxy-1-oxo-1,2-dihydroisoquinoline-7-carboxamide] here?
A: Its inhibition at 0.412 µM is 96.1%.

Q: `Cc1cc(Cn2ccc3ccc(C(=O)NO)cc3c2=O)no1` [Compound I-148, N-hydroxy-2-[(5-methylisoxazol-3-yl)methyl]-1-oxo-1,2-dihydroisoquinoline-7-carboxamide] was tested. Which inhibition at 0.412 µM did it give?
A: The inhibition at 0.412 µM was 91.2%.

Q: Which inhibition at 0.412 µM does the source give for `Cn1c(NCCc2ccc(Cl)cc2)nc2ccc(C(=O)NO)cc2c1=O` [Compound I-243, 2-{[2-(4-chlorophenyl)ethyl]amino}-N-hydroxy-3-methyl-4-oxo-3,4-dihydroquinazoline-6-carboxamide] here?
A: The inhibition at 0.412 µM was 60.8%.

Q: With `CC(C)Nc1nc2cc(C(=O)NO)ccc2c(=O)n1-c1ccc(Cl)cc1` [Compound I-40, 3-(4-chlorophenyl)-N-hydroxy-2-(isopropylamino)-4-oxo-3,4-dihydroquinazoline-7-carboxamide] as the compound, how does the inhibition at 0.412 µM read?
A: The inhibition at 0.412 µM was 44.5%.

Q: With `O=C(NO)c1ccc2ncn(Cc3ccccc3Cl)c(=O)c2c1` [Compound I-63, 3-(2-chlorobenzyl)-N-hydroxy-4-oxo-3,4-dihydroquinazoline-6-carboxamide] as the compound, how does the inhibition at 0.412 µM read?
A: Its inhibition at 0.412 µM is 93.2%.

Q: With `O=C(NO)c1ccc2ccn(CCCCOc3ccccc3)c(=O)c2c1` [Compound I-62, N-hydroxy-1-oxo-2-(4-phenoxybutyl)-1,2-dihydroisoquinoline-7-carboxamide] as the compound, how does the inhibition at 0.412 µM read?
A: Its inhibition at 0.412 µM is 98%.
